We go through 33 molecules from patent US20240279215A1 (Cytokinetics, Incorporated, priority 2022, published 2024).

In this experiment the target is human NAMPT (Homo sapiens (Human), UniProt P43490). As to the kind of experiment: NMN fluorescence biochemical assay (human recombinant NAMPT enzyme assay). The procedure, abridged: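 NMN formed was detected by fluorescence (Ex/Em 355/460 nm) after acetophenone, KOH and formic acid derivatization. The cell-free reaction ran 60 min at ambient temperature with 6 nM human NAMPT, 150 μM nicotinamide, 20 μM PRPP, 2.5 mM ATP, pH 7.2 HEPES, and compound dose responses.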
Sequence of human NAMPT (P43490 whole entry): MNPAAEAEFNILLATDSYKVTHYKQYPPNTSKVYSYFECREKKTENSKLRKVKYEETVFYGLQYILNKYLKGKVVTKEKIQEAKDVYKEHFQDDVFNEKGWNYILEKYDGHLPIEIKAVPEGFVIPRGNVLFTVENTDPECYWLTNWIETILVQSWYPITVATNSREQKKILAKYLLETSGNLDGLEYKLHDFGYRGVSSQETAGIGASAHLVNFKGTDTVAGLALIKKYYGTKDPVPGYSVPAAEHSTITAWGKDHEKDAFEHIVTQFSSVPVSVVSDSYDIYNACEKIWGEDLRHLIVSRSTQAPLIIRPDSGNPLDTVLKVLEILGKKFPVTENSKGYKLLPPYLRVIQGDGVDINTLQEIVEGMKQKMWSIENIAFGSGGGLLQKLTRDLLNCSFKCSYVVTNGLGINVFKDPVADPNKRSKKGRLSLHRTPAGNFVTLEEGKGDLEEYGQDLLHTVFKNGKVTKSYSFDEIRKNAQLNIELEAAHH

As to `CCc1ncoc1C(=O)NCc1ccc(NC(=O)OCc2ccc(Cl)cc2)cc1` [Compound 347, (4-chlorophenyl)methyl N-(4-{[(4-ethyl-1,3-oxazol-5-yl)formamido]methyl}phenyl)carbamate], the “AC1.4 Human” value turned out to be 13.92 µM and the EC50 worked out at 34.8 µM.

On to `COCCN1CCC(c2ccc(NC(=O)OCc3cnco3)cc2)CC1` [Compound 348, 1,3-oxazol-5-ylmethyl N-{4-[1-(2-methoxyethyl)piperidin-4-yl]phenyl}carbamate], for which the “AC1.4 Human” value was determined as 14.47 µM and the EC50 is 35.9 µM.

On to `O=C(Nc1ccc(Cc2ccncc2)cc1)OCc1ccncn1` [Compound 349, pyrimidin-4-ylmethyl (4-(pyridin-4-ylmethyl)phenyl)carbamate], for which the “AC1.4 Human” value is 15.55 µM and the concentration for a half-maximal effect (EC50) was 26 µM.

On to `O=C(Nc1ccc(Cc2ccns2)cc1)OCc1ccc(Cl)cc1` [Compound 350, 4-chlorobenzyl (4-(isothiazol-5-ylmethyl)phenyl)carbamate], for which the “AC1.4 Human” value was found to be 20.27 µM and the EC50 was found to be 44.4 µM.

In the case of `O=C(Nc1ccc(Cc2cncs2)cc1)OCc1ccc(Cl)cc1` [Compound 351, 4-chlorobenzyl (4-(thiazol-5-ylmethyl)phenyl)carbamate], the “AC1.4 Human” value was 22.18 µM and the EC50 came out at 37.3 µM.

Turning to `CN(C1COC1)S(=O)(=O)c1ccc(NC(=O)OCc2ccc(Cl)cc2)cc1` [Compound 352, 4-chlorobenzyl (4-(N-methyl-N-(oxetan-3-yl)sulfamoyl)phenyl)carbamate], the “AC1.4 Human” value was determined as 22.88 µM and the EC50 was 46.3 µM.

On to `O=C(Nc1ccc(Cc2cocn2)cc1)OCc1ccc(Cl)cc1` [Compound 353, 4-chlorobenzyl (4-(oxazol-4-ylmethyl)phenyl)], for which the “AC1.4 Human” value was determined as 23.63 µM and the EC50 is 24.3 µM.

In the case of `O=C(Nc1ccc(COC2CN(C3COC3)C2)cc1)OCc1ccc(Cl)cc1` [Compound 354, 4-chlorobenzyl (4-(((1-(oxetan-3-yl)azetidin-3-yl)oxy)methyl)phenyl)carbamate], the “AC1.4 Human” value was determined as 23.64 µM and the EC50 is 38.8 µM.

Take `Cn1cc(COC(=O)Nc2ccc(Cc3ccncc3)cc2)cn1` [Compound 355, (1-methyl-1H-pyrazol-4-yl)methyl (4-(pyridin-4-ylmethyl)phenyl)carbamate]: the “AC1.4 Human” value was found to be 25.86 µM and the half-maximal effective concentration (EC50) is 4.96 µM.

For `Cc1ccc(S(=O)(=O)NCc2ccc(NC(=O)OCc3ccc(Cl)cc3)cc2)cn1` [Compound 356, (4-chlorophenyl)methyl N-{4-[(6-methylpyridine-3-sulfonamido)methyl]phenyl}carbamate], the “AC1.4 Human” value amounted to 29.04 µM and the EC50 came out at 18.2 µM.

With `CC(C)C(=O)N1CC2(CC(c3ccc(NC(=O)OCc4cnco4)cc3)C2)C1` [Compound 357, oxazol-5-ylmethyl (4-(2-isobutyryl-2-azaspiro[3.3]heptan-6-yl)phenyl)carbamate], the “AC1.4 Human” value turned out to be 1.09 µM and the concentration giving a half-maximal response (EC50) was found to be 39.9 µM.

Turning to `CC(=O)N1CC2(CC(c3ccc(NC(=O)OCc4cnco4)cc3)C2)C1` [Compound 358, oxazol-5-ylmethyl (4-(2-acetyl-2-azaspiro[3.3]heptan-6-yl)phenyl)carbamate], the “AC1.4 Human” value is 0.25 µM and the EC50 came out at 28.9 µM.

Turning to `CS(=O)(=O)N1CCC[C@H](c2ccc(NC(=O)OCc3cnco3)cc2)C1` [Compound 365, oxazol-5-ylmethyl (R)-(4-(1-(methylsulfonyl)piperidin-3-yl)phenyl)carbamate], the “AC1.4 Human” value is 0.33 µM and the concentration for a half-maximal effect (EC50) was 38.6 µM.

On to `CN(C)S(=O)(=O)N1CCC[C@H](c2ccc(NC(=O)OCc3cnco3)cc2)C1` [Compound 366, oxazol-5-ylmethyl (R)-(4-(1-(N,N-dimethylsulfamoyl)piperidin-3-yl)phenyl)carbamate], for which the “AC1.4 Human” value is 0.15 µM and the EC50 is 10.2 µM.

`CCC(=O)N1CCC2(CC(Cc3ccc(NC(=O)OCc4cnco4)cc3F)C2)C1` (stereo not drawn) [Compound 367, oxazol-5-ylmethyl (3-fluoro-4-((6-propionyl-6-azaspiro[3.4]octan-2-yl)methyl)phenyl)carbamate]: the “AC1.4 Human” value was 0.07 µM and the EC50 is 4.77 µM.

As for `CC(C)C(=O)N1CCC2(CC(Cc3ccc(NC(=O)OCc4cnco4)cc3F)C2)C1` (stereo not drawn) [Compound 368, oxazol-5-ylmethyl (3-fluoro-4-((6-isobutyryl-6-azaspiro[3.4]octan-2-yl)methyl)phenyl)carbamate], the “AC1.4 Human” value came out at 0.09 µM and the 50% effective concentration (EC50) was 2.93 µM.

As to `CCS(=O)(=O)N1CCC2(CC(Cc3ccc(NC(=O)OCc4cnco4)cc3F)C2)C1` (stereo not drawn) [Compound 369, oxazol-5-ylmethyl (3-fluoro-4-((6-(ethylsulfonyl)-6-azaspiro[3.4]octan-2-yl)methyl)phenyl)carbamate], the “AC1.4 Human” value was 0.16 µM and the 50% effective concentration (EC50) amounted to 4.36 µM.

For the molecule `CS(=O)(=O)N1CCC2(CC(Cc3ccc(NC(=O)OCc4cnco4)cc3F)C2)C1` (stereo not drawn) [Compound 370, oxazol-5-ylmethyl (3-fluoro-4-((6-(methylsulfonyl)-6-azaspiro[3.4]octan-2-yl)methyl)phenyl)carbamate], the “AC1.4 Human” value was 0.13 µM and the EC50 was determined as 5.8 µM.

For `COC(=O)N1CCC2(CC(Cc3ccc(NC(=O)OCc4cnco4)cc3F)C2)C1` (stereo not drawn) [Compound 371, methyl 2-(2-fluoro-4-(((oxazol-5-ylmethoxy)carbonyl)amino)benzyl)-6-azaspiro[3.4]octane-6-carboxylate], the “AC1.4 Human” value was found to be 0.27 µM and the EC50 was 4.57 µM.

On to `CC(=O)N1CCC2(CC(Cc3ccc(NC(=O)OCc4cnco4)cc3F)C2)C1` (stereo not drawn) [Compound 374, oxazol-5-ylmethyl (4-((6-acetyl-6-azaspiro[3.4]octan-2-yl)methyl)-3-fluorophenyl)carbamate], for which the “AC1.4 Human” value worked out at 0.08 µM and the concentration giving a half-maximal response (EC50) amounted to 4.17 µM.

Regarding `CC(=O)N1CCC[C@H](c2ccc(NC(=O)OCc3cnco3)cc2)C1` [Compound 375, oxazol-5-ylmethyl (R)-(4-(1-acetylpiperidin-3-yl)phenyl)carbamate], the “AC1.4 Human” value is 1.32 µM and the EC50 was 53.8 µM.

As for `CC(C)(C)OC(=O)N1CCC2(CC(Cc3ccc(NC(=O)OCc4cnco4)cc3F)C2)C1` (stereo not drawn) [Compound 377, tert-butyl 2-(2-fluoro-4-(((oxazol-5-ylmethoxy)carbonyl)amino)benzyl)-6-azaspiro[3.4]octane-6-carboxylate], the “AC1.4 Human” value turned out to be 1.08 µM and the EC50 is 9.37 µM.

Turning to `O=C(Nc1ccc(CC2CC3(CCNC3)C2)c(F)c1)OCc1cnco1` (stereo not drawn) [Compound 378, oxazol-5-ylmethyl (4-((6-azaspiro[3.4]octan-2-yl)methyl)-3-fluorophenyl)carbamate], the “AC1.4 Human” value was determined as 0.38 µM and the EC50 is 18.6 µM.

As for `CN(C)C(=O)N1CCC2(CC(Cc3ccc(NC(=O)OCc4cnco4)cc3F)C2)C1` (stereo not drawn) [Compound 379, oxazol-5-ylmethyl (4-((6-(dimethylcarbamoyl)-6-azaspiro[3.4]octan-2-yl)methyl)-3-fluorophenyl)carbamate], the “AC1.4 Human” value was 0.12 µM and the EC50 was found to be 2.96 µM.

Consider `O=C(Nc1ccc([C@@H]2CCCN(C3COC3)C2)cc1)OCc1cnco1` [Compound 380, oxazol-5-ylmethyl (S)-(4-(1-(oxetan-3-yl)piperidin-3-yl)phenyl)carbamate], for which the “AC1.4 Human” value worked out at 0.84 µM and the EC50 came out at 41.5 µM.

For `CC(=O)N1CCC[C@@H](c2ccc(NC(=O)OCc3cnco3)cc2)C1` [Compound 381, oxazol-5-ylmethyl (S)-(4-(1-acetylpiperidin-3-yl)phenyl)carbamate], the “AC1.4 Human” value was found to be 3.37 µM and the EC50 was determined as 17 µM.

`CS(=O)(=O)N1CCC[C@@H](c2ccc(NC(=O)OCc3cnco3)cc2)C1` [Compound 382, oxazol-5-ylmethyl (S)-(4-(1-(methylsulfonyl)piperidin-3-yl)phenyl)carbamate]: the “AC1.4 Human” value turned out to be 0.35 µM and the EC50 was 22.4 µM.

For `COC(=O)N1CCC[C@@H](c2ccc(NC(=O)OCc3cnco3)cc2)C1` [Compound 383, methyl (S)-3-(4-(((oxazol-5-ylmethoxy)carbonyl)amino)phenyl)piperidine-1-carboxylate], the “AC1.4 Human” value amounted to 2.58 µM and the EC50 stood at 20.3 µM.

For the molecule `CN(C)S(=O)(=O)N1CCC[C@@H](c2ccc(NC(=O)OCc3cnco3)cc2)C1` [Compound 384, oxazol-5-ylmethyl (S)-(4-(1-(N,N-dimethylsulfamoyl)piperidin-3-yl)phenyl)carbamate], the “AC1.4 Human” value stood at 0.24 µM and the EC50 came to 23.3 µM.

For the molecule `CN(C)C(=O)N1CCC[C@@H](c2ccc(NC(=O)OCc3cnco3)cc2)C1` [Compound 385, oxazol-5-ylmethyl (S)-(4-(1-(dimethylcarbamoyl)piperidin-3-yl)phenyl)carbamate], the “AC1.4 Human” value turned out to be 1.69 µM and the EC50 was determined as 20.8 µM.

Take `CCS(=O)(=O)N1CC2(CC(Cc3ccc(NC(=O)OCc4cnco4)cc3F)C2)C1` [Compound 386, oxazol-5-ylmethyl (4-((2-(ethylsulfonyl)-2-azaspiro[3.3]heptan-6-yl)methyl)-3-fluorophenyl)carbamate]: the “AC1.4 Human” value turned out to be 0.14 µM and the EC50 worked out at 14.1 µM.

`CN(C)S(=O)(=O)N1CC2(CC(c3ccc(NC(=O)OCc4cnco4)cc3F)C2)C1` [Compound 387, oxazol-5-ylmethyl (4-(2-(N,N-dimethylsulfamoyl)-2-azaspiro[3.3]heptan-6-yl)-3-fluorophenyl)carbamate]: the “AC1.4 Human” value worked out at 0.08 µM and the EC50 was found to be 2.76 µM.

With `CS(=O)(=O)N1CC2(CC(c3ccc(NC(=O)OCc4cnco4)cc3F)C2)C1` [Compound 388, oxazol-5-ylmethyl (3-fluoro-4-(2-(methylsulfonyl)-2-azaspiro[3.3]heptan-6-yl)phenyl)carbamate], the “AC1.4 Human” value worked out at 0.13 µM and the EC50 amounted to 10.2 µM.

In general, EC50 refers to the concentration needed to bring the measured effect to its halfway point.
